Reference: BindingDB's records for doi:10.7270/Q2TX3CTT (Broad Institute, 2010)

Target: Glycogen synthase kinase-3 beta (Homo sapiens, UniProt P49841)
Assay: GSK3beta kinase inhibitor potency, dose response, biochemical, luminescence, cell-free homogeneous, retest (AID 434954)

Chain of Glycogen synthase kinase-3 beta (P49841 whole entry): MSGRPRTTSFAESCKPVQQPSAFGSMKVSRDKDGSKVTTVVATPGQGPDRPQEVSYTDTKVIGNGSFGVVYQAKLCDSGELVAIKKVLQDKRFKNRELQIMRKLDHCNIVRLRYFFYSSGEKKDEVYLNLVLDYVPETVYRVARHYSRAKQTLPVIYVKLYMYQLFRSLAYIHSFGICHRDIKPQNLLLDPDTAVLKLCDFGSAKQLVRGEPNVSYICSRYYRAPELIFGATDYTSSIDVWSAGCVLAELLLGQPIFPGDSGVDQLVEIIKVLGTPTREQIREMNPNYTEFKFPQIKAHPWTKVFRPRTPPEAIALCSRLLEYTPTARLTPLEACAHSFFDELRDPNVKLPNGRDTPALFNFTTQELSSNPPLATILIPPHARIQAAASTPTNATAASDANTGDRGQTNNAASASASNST

SMILES	EC50 [µM]
CN1CCN(c2ccc([N+](=O)[O-])cc2Cl)CC1 [SMR000283168]	> 300
O=C1C2C3C=CC(C3)C2C(=O)N1CCCCCCN1C(=O)C2C3C=CC(C3)C2C1=O (stereo not drawn) [SMR000283963]	> 300
CCOC(=O)Cc1csc(NC(=O)c2c(O)c3ccccc3n(CCC(C)C)c2=O)n1 [SMR000284490]	> 300
O=[N+]([O-])c1cc(Cl)ccc1N1CCCC1 [SMR000284754]	> 300
CC1=NN(C(=O)CCc2ccc3c(c2)OCO3)C(O)(C(F)(F)F)C1 (stereo not drawn) [SMR000289779]	> 300
CC1(C)CC(=O)C2C(=Nc3ncnn3C2c2cccs2)C1 (stereo not drawn) [SMR000291528]	57.1
CC(C)N(C(=O)Cc1ccccc1[N+](=O)[O-])C(C)C [SMR000291889]	> 300
CC(=O)NC(=S)Nc1ccccc1N1CCCCC1 [SMR000292167]	> 300
Brc1ccc(CSc2nnc(-c3cccnc3)o2)cc1 [SMR000292494]	> 300
CC(NCCC(Cc1ccccc1)c1ccco1)c1ccccc1 (stereo not drawn) [SMR000294034]	> 300
CSc1nc2n(n1)C(c1cccs1)C1C(=O)CCCC1=N2 (stereo not drawn) [SMR000295648]	> 300
CC(C(=O)NCC1CCCO1)n1cc([N+](=O)[O-])cn1 (stereo not drawn) [SMR000296777]	> 300
N#Cc1ccccc1CSc1nnc(Cc2ccccc2)o1 [SMR000297282]	> 300
Cc1cc(Cl)nc(Cl)c1C(=O)N1CCOCC1 [SMR000307050]	> 300
FC(F)(F)COc1ccc(-n2ccnc2)nn1 [SMR000307161]	> 300
Cc1ccnc(NC(=O)Cn2cc([N+](=O)[O-])cn2)c1 [SMR000307337]	> 300
Cc1ccc(OCC(=O)N/N=C/c2ccc(O)c([N+](=O)[O-])c2)c([N+](=O)[O-])c1 [SMR000312577]	> 300
CN(Cc1nc2c(s1)CCCC2)C(=O)CCc1nnc(-c2ccc3c(c2)OCO3)o1 [SMR000318717]	50
Cc1nnc(SCC(=O)Nc2nccs2)n(N)c1=O [SMR000323668]	> 300
CC(C)(C)Sc1ccc(CN=O)cc1[N+](=O)[O-] [SMR000335018]	23.6
CN1CCN(CCC2Oc3cc([N+](=O)[O-])ccc3NC2=O)CC1 (stereo not drawn) [SMR000336558]	> 300
CN(c1ncnc(N)c1[N+](=O)[O-])C1CCS(=O)(=O)C1 (stereo not drawn) [SMR000347974]	28.2
COc1cc(NC(=O)COC(=O)CCc2cc(OC)c(OC)c(OC)c2)cc(OC)c1 [SMR000349752]	> 300
O=C(c1ccc(Cl)nc1)N1CCN(C/C=C/c2ccccc2)CC1 [SMR000352615]	> 300
CCCCC(=O)Nc1nc2c(OC)cc([N+](=O)[O-])cc2s1 [SMR000363192]	> 300
O=NCc1cn(CCC(=O)O)nc1-c1cccc([N+](=O)[O-])c1 [SMR000371064]	7.38
N#CCCn1cc(C(=O)O)c(-c2cccc([N+](=O)[O-])c2)n1 [SMR000372597]	> 300
CC(C)Nc1nnc(SCC(=O)NCc2ccc3c(c2)OCO3)s1 [SMR000375706]	> 300
O=Cc1ccc(N2CCCC2)c([N+](=O)[O-])c1 [SMR000383989]	> 300

Results, then the compound that gave them:

EC50 [µM]	SMILES
> 300	O=[N+]([O-])c1ccc2ccn(C3OCC(O)C(O)C3O)c2c1 (stereo not drawn) [SMR000283162]
> 300	CCc1ccccc1-n1c(O)cc(N2CCc3ccccc32)c1O [SMR000285101]
8.4	COc1ccc(CC(=O)Nc2ncc([N+](=O)[O-])s2)cc1OC [SMR000288398]
13.6	O=[N+]([O-])c1c(-c2cn[nH]c2)n[nH]c1-c1cn[nH]c1 [SMR000289595]
> 300	O=C(Cc1ccc([N+](=O)[O-])cc1)Nc1ccc2c(c1)C(=O)NC2=O [SMR000291894]
> 300	O=C(COc1ccccc1)Nc1ccc2c(c1)C(=O)N(CC1CCCO1)C2=O (stereo not drawn) [SMR000291909]
> 300	COc1cccc(C(=O)Nc2ccc(C(=O)NCC(C)C)cc2)c1 [SMR000292523]
> 300	CCOc1ccc(NC(=O)Nc2cnccn2)cc1 [SMR000297712]
> 300	O=C1N=C(Nc2ccc(O)cc2)SC1=Cc1ccco1 [SMR000298037]
> 300	CCOC(=O)c1cnc2ccccc2c1Nc1ccc(C(=O)O)cc1 [SMR000299060]
15.8	Cc1c(Cc2ccccc2)c(=O)oc2cc(O)cc(O)c12 [SMR000300454]
> 300	CC(=O)Oc1cccc(N2C(=O)c3ccc(C(=O)Nc4cccnc4)cc3C2=O)c1 [SMR000306801]
> 300	CC(C(=O)Nc1nc2ccccc2s1)n1cc([N+](=O)[O-])cn1 (stereo not drawn) [SMR000307349]
> 300	Cc1cc(CNC(=O)C(C)n2cc([N+](=O)[O-])cn2)c2ccccc2n1 (stereo not drawn) [SMR000307388]
> 300	C=c1cc2[nH]c(=O)c(=Cc3ccc(OCC)c(OC)c3)c(=N)n2o1 [SMR000309341]
> 300	COc1cc(CN=Nc2nc(Nc3ccccc3)nc(N3CCCCC3)n2)ccc1OCC(=O)O [SMR000312683]
> 300	Oc1ccc(CN=Nc2ncnc3nc[nH]c23)cc1 [SMR000320358]
14	Nc1ncnc(N2CCc3ccccc32)c1[N+](=O)[O-] [SMR000323059]
> 300	Cc1ccccc1CSc1ccc2nnc(-c3ccccn3)n2n1 [SMR000323599]
> 300	CSc1nnc2ccc(-c3cccs3)nn12 [SMR000324231]

EC50 [µM]	SMILES
> 300	CCc1ccccc1NC(=O)CSc1nnc(-c2ccncc2)o1 [SMR000324383]
> 300	CC(C)Nc1nc(-c2ccncc2)nc(-c2ccc(Cl)cc2)c1C#N [SMR000333194]
> 300	COc1ccc(NC(=O)c2ccc(-c3ccc(OC)cc3)s2)cc1 [SMR000335035]
> 300	O=C(Nc1cccc(Cl)c1)Nc1ccnc(-c2cccnc2)n1 [SMR000337179]
> 300	CCOCCOC(=O)c1ccc(-n2cnc(C)n2)nc1 [SMR000337218]
14.1	COc1ccc(-n2nc3c(N)n[nH]c3cc2=O)cc1 [SMR000337768]
28	Cc1[nH]nc2c1C(c1ccc(N(C)C)cc1)C1C(=O)CC(C)(C)CC1=N2 (stereo not drawn) [SMR000343282]
6.11	CN1CCN(/N=C2\C(=O)Nc3ccc([N+](=O)[O-])cc32)CC1 [SMR000347605]
0.958	COc1cccc(C2c3c(n[nH]c3C)N=C3CC(C)(C)CC(=O)C32)c1 (stereo not drawn) [SMR000347812]
> 300	COc1ccc(C2c3c(n[nH]c3C)N=C3CCCC(=O)C32)cc1OC (stereo not drawn) [SMR000353889]
24.7	CCN1/C(=C/C(C)=C/c2sc3ccccc3[n+]2CC)Sc2ccccc21 [SMR000354813]
> 300	COc1cc(/C=C/c2nc3ccc([N+](=O)[O-])cc3s2)ccc1OCC(=O)O [SMR000365317]
23	O=C1Nc2ccc([N+](=O)[O-])cc2C1=NNC1CS(=O)(=O)CC1O (stereo not drawn) [SMR000368316]
> 300	CCN(CC)S(=O)(=O)c1cccc(-n2cc(O)c(-c3ccccc3)c2N)c1 [SMR000368326]
> 300	COc1ccc(Nc2ccccc2C(=O)O)cc1 [SMR000370544]
> 300	COc1ccc(-c2nn(-c3ccccc3)cc2CN=Nc2ccc(Cl)c(C(=O)O)c2)cc1OC [SMR000371971]
> 300	O=C(O)c1ccccc1Nc1ccc(OC(F)F)cc1 [SMR000372165]
> 300	CN(C)C(CNC(=O)c1ccc2ccccc2c1)c1ccco1 (stereo not drawn) [SMR000377096]
> 300	COCCn1c(SCC(=O)Nc2ccccc2OC)nc2ccccc21 [SMR000377677]
